According to patent US11414437B2, “Borate compound, and synthesis method therefor and uses thereof” (CHENGDU ORIGIN BIOTECHNOLOGY LIMITED COMPANY, priority 2017, dated 2022):
Structures can show the parent of a compound that is named as a salt. Where two headings read alike, the source gives them in different places.

Assays:
[1] = system: MM.1S human multiple myeloma SCID mouse transplanted tumor; experiment: Pharmacodynamic test, SCID mouse transplanted tumor model; format: in vivo; conditions: 0.0166 mmol/kg intragastric; for Average tumor relative volume RVT5 / Average tumor relative volume RVT8 / Average tumor relative volume RVT12 / Average tumor relative volume RVT15 / Average tumor relative volume RVT18: twice a week; for Average tumor relative volume RVT5 / Average tumor relative volume RVT8 / Average tumor relative volume RVT12 / Average tumor relative volume RVT15 / Average tumor relative volume RVT18 / Tumor weight (g): X ± SD; for Tumor weight (g): after the 18th day
Method: In the experiment, a SCID mouse transplanted tumor model of a human multiple myeloma cell line MM.1S was used. Specific modeling steps were as follows: frozen MM.1S cells were resuscitated and cultured in vitro according to a routine, and the cells were collected in a logarithmic growth phase, and diluted with PBS to form a tumor cell suspension with a concentration of 5×10^7/ml. […] About 1 week to 2 weeks after injection, the mass was palpable in axillary, and in vivo passage was performed when a tumor volume was larger than 500 mm^3. After the mouse was killed by a neck pulling method, a body surface was disinfected, skin was cut open, aseptic operation was performed, a tumor tissue was peeled off from an axillary subcutaneous tissue, a fibrous capsule was removed, and the tumor was taken out. The tumor was washed clean in normal saline, and then cut, and after removing the central necrotic part, the tumor tissue with good growth, reddish color and fish flesh shape was selected, then was cut into 1 mm×1 mm×1 mm small pieces, and placed in normal saline for later use. The cut tumor was placed in a mouth of a No. 18 trocar, iodized cotton was used to disinfect the side of the armpit close to the back of the mouse, and local inoculation was performed. The transplanted tumor used in the test was the 4th generation of in vivo passage. When the tumor volume of most SCID mice of in vivo passage was larger than 100 mm^3, the tumor volume was measured and calculated, and the mice were randomly grouped according to the tumor volume.
The administration mode was intragastric administration through mouth, with an administration volume of 10 ml/kg. The model control group was given the same volume of solvent intragastrically. The mice were all intragastrically administrated through mouth twice a week for a total of 5 times, i.e., the mice were administrated at the 1st, 5th, 8th, 12th and 15th days of the experiment, with a duration of 18 days.
Doses of different tested samples were equimolar, with a specific dose of 0.0166 mmol/kg; and the model control group was only given normal saline. The medicines were 8b and 8l, as well as Ixazomib Citrate (MLN9708) and Ixazomib (MLN2238).
On the 5th, 8th, 12th, 15th and 18th days after administration, a short diameter (a) and a long diameter (b) of the tumor of each mouse were measured with a vernier caliper, and the tumor volume was calculated according to a formula (a^2×b)/2. A relative tumor volume (RTV) was calculated based on the tumor volume measured and calculated, RTV=Vt/V0. V0 was the tumor volume at random grouping (i.e., d0) and Vt was the tumor volume at each measurement (i.e., dn). A relative tumor proliferation rate of an anti-tumor activity evaluation index was calculated according to the following formula: relative tumor proliferation rate T/C (%): […]
(Note: TRTV was a RTV of the treatment group; and CRTV was a RTV of the model control group. An evaluation standard of a curative effect was T/C %≤40%, and the medicine was effective when P<0.05 after statistical treatment).
After weighing and measuring the tumor on the 18th day, all animals were sacrificed, and the tumor was taken and weighed.

[2] = system: SD rats; conditions: for maximum tolerance dose: female rats, single intragastric dose
Text: The test was a single-dose toxicity test of SD rats by intragastric administration through mouth.

[3] = system: MM.1S (human multiple myeloma cell); experiment: In vitro activity test (CCK-8 cell growth inhibition); format: cell-based; conditions: MM1.S, 48 hours incubation, read-out: MM.IS cell GI50 (μM) value
Method: (§1) Cells RPMI-8226 (human multiple myeloma cell) and MM.1S (human multiple myeloma cell) were cultured in a RPMI 1640 medium containing 10% fetal bovine serum at 37[…] under 5% CO2 to a logarithmic growth phase. The cells were respectively inoculated into a 96-well culture plate in a quantity of 3×10^4/well. After culturing for 24 hours at 37[…] under 5% CO2, a solvent control DMSO (dimethyl sulfoxide) or a tested compound (the tested compound taken 0.3 μM as an initial concentration, was diluted 3 times each time, and was diluted 5 times in total to obtain 6 concentration gradients) dissolved in the DMSO was added into the cells. The tested compound was incubated with the cells for 48 hours at 37[…] under 5% CO2. A CCK-8 reagent was added into each well, and incubated at 37 °C for 2 hours according to a reagent specification, and an optical density value of each well was read at a wavelength of 450 nm using a spectrophotometer.
(§2) An optical density value of the cells when the medicine acted for 0 hour was set as a Tz value, which represented a value of the cells when the medicine was added. The optical density value of the cells when the solvent control DMSO acted for 48 hours was set as a C value; and the optical density value of the cells when the tested compound acted for 48 hours was set as a Ti value. According to a method proposed by the NIH-NCI (National Institutes of Health-National Cancer Institute) of the United States, a response of the cells to a medicine was calculated: when Ti≥Tz, the response was [(Ti−Tz)/(C−Tz)]×100; and when Ti<Tz, the response was [(Ti−Tz)/Tz]×100. According to the calculation above, a GI50 value (a concentration of the tested compound required when a cell growth inhibition rate was 50%) was calculated by the 4 Parameter Logistic Model in the XLfit software.

[4] = system: RPMI-8226 (human multiple myeloma cell); experiment: as above; format: cell-based; conditions: 48 hours incubation
Method: as §1, §2

[5] = dose 1, 0.001108 mmol/kg single intragastric dose, 6 female rats, 14 days observation
[6] = dose 1, 0.001108 mmol/kg single intragastric dose, 6 male rats, 14 days observation
[7] = dose 2, 0.001662 mmol/kg single intragastric dose, 6 female rats, 14 days observation
[8] = dose 2, 0.001662 mmol/kg single intragastric dose, 6 male rats, 14 days observation
[9] = dose 4, 0.00277 mmol/kg single intragastric dose, 6 female rats, 14 days observation
[10] = dose 4, 0.00277 mmol/kg single intragastric dose, 6 male rats, 14 days observation
[11] = dose 3, 0.002216 mmol/kg single intragastric dose, 6 female rats, 14 days observation
[12] = dose 3, 0.002216 mmol/kg single intragastric dose, 6 male rats, 14 days observation
[13] = female, rat, in vivo, 0.001108 mmol/kg, 14 days
[14] = male, rat, in vivo, 0.001108 mmol/kg, 14 days
[15] = male, rat, in vivo, 0.002216 mmol/kg, 14 days

Row | Structure (SMILES) | Relative tumor proliferation rate T/C(%) ([1]; 5th day) | Average tumor relative volume RVT5 ([1]; 5th day) | Relative tumor proliferation rate T/C(%) ([1]; 8th day) | Average tumor relative volume RVT8 ([1]; 8th day) | Relative tumor proliferation rate T/C(%) ([1]; 12th day) | Average tumor relative volume RVT12 ([1]; 12th day) | Relative tumor proliferation rate T/C(%) ([1]; 15th day) | Average tumor relative volume RVT15 ([1]; 15th day) | Female Suvival [2, 5] | Male Suvival [2, 6] | Female Death [2, 7] | Female Suvival [2, 7] | Male Death [2, 8] | Male Suvival [2, 8] | Female Death [2, 9] | Female Suvival [2, 9] | Male Death [2, 10] | Male Suvival [2, 10] | GI50 [3] | GI50 [4] | other results
1 | CC(C)C[C@H](NC(=O)CNC(=O)c1cc(Cl)ccc1Cl)B(O)O [Ixazomib (MLN2238), Ixazomib] | 87.8^★★ % | 1.522 ± 0.273^★★ | 45.44^★ % | 1.238 ± 0.841^★▴▴ | 22.51^★★ % | 0.898 ± 0.749^★★▴▴ | 10.8^★★ % | 0.489 ± 0.343^★★▴▴ | 6 | 6 | 2 | 4 | 0 | 6 | 6 | 0 | 0 | 6 |  |  | Relative tumor proliferation rate T/C(%) ([1]; 18th day): 2.43^★★ %; Average tumor relative volume RVT18 ([1]; 18th day): 0.163 ± 0.132^★★▴▴; Tumor weight (g) [1]: 0.374 ± 0.291^★★ g; Female Death [2, 5]: 0; Male Death [2, 6]: 0; maximum tolerance dose [2]: 0.001108 mmol/kg; Female Death ([2]; rat, in vivo): 4; Female Suvival ([2]; rat, in vivo): 2; Male Death ([2]; rat, in vivo): 0; Male Suvival ([2]; rat, in vivo): 6
2 | CC(C)C[C@H](NC(=O)CNC(=O)c1cc(Cl)ccc1Cl)B1OC(=O)C(CC(=O)O)(CC(=O)O)O1 [Ixazomib (MLN9708), Ixazomib Citrate] | 82.56^★★ % | 1.431 ± 0.452^★★ | 20.94% | 0.571 ± 0.305 | 6.13^★★ % | 0.245 ± 0.123^★★▴▴ | 4.42^★★ % | 0.214 ± 0.133^★★▴▴ | 6 | 6 | 1 | 5 | 0 | 6 | 6 | 0 | 0 | 6 |  |  | Relative tumor proliferation rate T/C(%) ([1]; 18th day): 3.06^★★ %; Average tumor relative volume RVT18 ([1]; 18th day): 0.205 ± 00.151^★★▴▴; Tumor weight (g) [1]: 0.284 ± 0.312^★ g; Female Death [2, 5]: 0; Male Death [2, 6]: 0; maximum tolerance dose [2]: 0.001108 mmol/kg; Female Death ([2]; rat, in vivo): 3; Female Suvival ([2]; rat, in vivo): 3; Male Death ([2]; rat, in vivo): 0; Male Suvival ([2]; rat, in vivo): 6
3 | CC(C)C[C@H](NC(=O)CNC(=O)c1cc(Br)ccc1Cl)B1OCCNCCO1 [compound 8d] |  |  |  |  |  |  |  |  | 6 | 6 | 2 | 4 | 0 | 6 | 6 | 0 | 0 | 6 |  |  | Female Death [2, 11]: 5; Female Suvival [2, 11]: 1; Male Suvival [2, 12]: 6; Female Death [2, 13]: 0; Male Death [2, 14]: 0; Male Death [2, 15]: 0
4 | CC(C)C[C@H](NC(=O)CNC(=O)c1cc(Cl)ccc1Cl)B1OC(=O)[C@@H](c2ccccc2)O1 [compound 8l, 2-chloro-5-chloro-N-[2-({(1R)-3-methyl-1-[(5R)-4-oxo-5-phenyl-1,3,2-dioxaborolan-2-yl]butyl}amino)-2-oxoethyl]benzamide] | 103.30^★★ % | 1.791 ± 0.540^★★ | 63.82^★★ % | 1.739 ± 0.783^★★▴ | 36.37^★★ % | 1.451 ± 0.676^★★▴▴ | 23.24^★★ % | 1.127 ± 0.667^★★▴▴ | 6 | 6 | 1 | 5 | 0 | 6 | 6 | 0 | 0 | 6 |  |  | Relative tumor proliferation rate T/C(%) ([1]; 18th day): 8.38^★ %; Average tumor relative volume RVT18 ([1]; 18th day): 0.561 ± 0.468^★★▴▴; Tumor weight (g) [1]: 0.560 ± 0.566^★ g; Female Death [2, 11]: 2; Female Suvival [2, 11]: 4; Male Suvival [2, 12]: 6; maximum tolerance dose [2]: 0.001108 mmol/kg; Female Death [2, 13]: 0; Male Death [2, 14]: 0; Male Death [2, 15]: 0
5 | CC(C)C[C@H](NC(=O)CNC(=O)c1cc(Br)ccc1Cl)B1OC(=O)c2ccccc2O1 [drawing 39] |  |  |  |  |  |  |  |  |  |  |  |  |  |  |  |  |  |  | 0.00209 µM | 0.00619 µM | 
6 | CC(C)C[C@H](NC(=O)CNC(=O)c1cc(Br)ccc1Cl)B1OC(=O)[C@@H](c2ccccc2)O1 [drawing 40] |  |  |  |  |  |  |  |  |  |  |  |  |  |  |  |  |  |  | 0.00275 µM | 0.00598 µM | 
7 | CC(C)C[C@H](NC(=O)CNC(=O)c1cc(Br)ccc1Cl)B1OCCNCCO1 [drawing 41] |  |  |  |  |  |  |  |  |  |  |  |  |  |  |  |  |  |  | 0.00713 µM | 0.00651 µM | 
8 | CC(C)C[C@H](NC(=O)CNC(=O)c1cc(Cl)ccc1Br)B1OCCNCCO1 [drawing 42] |  |  |  |  |  |  |  |  |  |  |  |  |  |  |  |  |  |  | 0.00816 µM | 0.006 µM | 
9 | CC(C)C[C@H](NC(=O)CNC(=O)c1cc(Cl)ccc1Cl)B1OC(=O)[C@@H](c2ccccc2)O1 [drawing 43] |  |  |  |  |  |  |  |  |  |  |  |  |  |  |  |  |  |  | 0.0186 µM | 0.0216 µM | 
